Laboratory results taken from the NIST ThermoML archive (doi:10.1021/acs.jced.5b00018).
± gives the expanded uncertainty stated by the source.

What was measured:
[1] = refractive index (Na D-line) (dimensionless); wn = mass fraction of the nth substance listed; conditions: 100 kPa, Liquid, Standard Abbe refractometry
[2] = refractive index (Na D-line) (dimensionless); conditions: 100 kPa, Liquid, Standard Abbe refractometry

[Ca+2].[Cl-].[Cl-] [calcium chloride] + O
refractive index ([1]; 293.15 K, w1 = 0.01): 1.3356 ± 0.0007
refractive index ([1]; 293.15 K, w1 = 0.05): 1.3442 ± 0.0007
refractive index ([1]; 293.15 K, w1 = 0.1): 1.3568 ± 0.0007
refractive index ([1]; 293.15 K, w1 = 0.15): 1.3689 ± 0.0007
refractive index ([1]; 293.15 K, w1 = 0.2): 1.3818 ± 0.0007
refractive index ([1]; 293.15 K, w1 = 0.25): 1.3945 ± 0.0007
refractive index ([1]; 298.15 K, w1 = 0.01): 1.3353 ± 0.0007
refractive index ([1]; 298.15 K, w1 = 0.05): 1.3437 ± 0.0007
refractive index ([1]; 298.15 K, w1 = 0.1): 1.3561 ± 0.0007
refractive index ([1]; 298.15 K, w1 = 0.15): 1.3686 ± 0.0007
refractive index ([1]; 298.15 K, w1 = 0.2): 1.3814 ± 0.0007
refractive index ([1]; 298.15 K, w1 = 0.25): 1.3943 ± 0.0007
refractive index ([1]; 303.15 K, w1 = 0.01): 1.3349 ± 0.0007
refractive index ([1]; 303.15 K, w1 = 0.05): 1.3431 ± 0.0007
refractive index ([1]; 303.15 K, w1 = 0.1): 1.3555 ± 0.0007
refractive index ([1]; 303.15 K, w1 = 0.15): 1.368 ± 0.0007
refractive index ([1]; 303.15 K, w1 = 0.2): 1.3807 ± 0.0007
refractive index ([1]; 303.15 K, w1 = 0.25): 1.394 ± 0.0007
refractive index ([1]; 308.15 K, w1 = 0.01): 1.3344 ± 0.0007
refractive index ([1]; 308.15 K, w1 = 0.05): 1.3426 ± 0.0007
refractive index ([1]; 308.15 K, w1 = 0.1): 1.3551 ± 0.0007
refractive index ([1]; 308.15 K, w1 = 0.15): 1.3671 ± 0.0007
refractive index ([1]; 308.15 K, w1 = 0.2): 1.3802 ± 0.0007
refractive index ([1]; 308.15 K, w1 = 0.25): 1.3933 ± 0.0007
refractive index ([1]; 313.15 K, w1 = 0.01): 1.3339 ± 0.0007
refractive index ([1]; 313.15 K, w1 = 0.05): 1.342 ± 0.0007
refractive index ([1]; 313.15 K, w1 = 0.1): 1.3546 ± 0.0007
refractive index ([1]; 313.15 K, w1 = 0.15): 1.3667 ± 0.0007
refractive index ([1]; 313.15 K, w1 = 0.2): 1.3795 ± 0.0007
refractive index ([1]; 313.15 K, w1 = 0.25): 1.3926 ± 0.0007
refractive index ([1]; 318.15 K, w1 = 0.01): 1.3331 ± 0.0007
refractive index ([1]; 318.15 K, w1 = 0.05): 1.3414 ± 0.0007
refractive index ([1]; 318.15 K, w1 = 0.1): 1.3539 ± 0.0007
refractive index ([1]; 318.15 K, w1 = 0.15): 1.3662 ± 0.0007
refractive index ([1]; 318.15 K, w1 = 0.2): 1.3789 ± 0.0007
refractive index ([1]; 318.15 K, w1 = 0.25): 1.392 ± 0.0007

OC[C@H]1O[C@H](O)[C@H](O)[C@@H](O)[C@@H]1O [α-D-glucose] + O
refractive index ([1]; 293.15 K, w1 = 0.01): 1.336 ± 0.0007
refractive index ([1]; 293.15 K, w1 = 0.05): 1.3412 ± 0.0007
refractive index ([1]; 293.15 K, w1 = 0.1): 1.3481 ± 0.0007
refractive index ([1]; 293.15 K, w1 = 0.15): 1.3553 ± 0.0007
refractive index ([1]; 293.15 K, w1 = 0.2): 1.3623 ± 0.0007
refractive index ([1]; 293.15 K, w1 = 0.3): 1.3775 ± 0.0007
refractive index ([1]; 293.15 K, w1 = 0.4): 1.3947 ± 0.0007
refractive index ([1]; 293.15 K, w1 = 0.5): 1.4119 ± 0.0007
refractive index ([1]; 298.15 K, w1 = 0.01): 1.3355 ± 0.0007
refractive index ([1]; 298.15 K, w1 = 0.05): 1.3406 ± 0.0007
refractive index ([1]; 298.15 K, w1 = 0.1): 1.3475 ± 0.0007
refractive index ([1]; 298.15 K, w1 = 0.15): 1.3548 ± 0.0007
refractive index ([1]; 298.15 K, w1 = 0.2): 1.3617 ± 0.0007
refractive index ([1]; 298.15 K, w1 = 0.3): 1.3768 ± 0.0007
refractive index ([1]; 298.15 K, w1 = 0.4): 1.3939 ± 0.0007
refractive index ([1]; 298.15 K, w1 = 0.5): 1.4106 ± 0.0007
refractive index ([1]; 303.15 K, w1 = 0.01): 1.3349 ± 0.0007
refractive index ([1]; 303.15 K, w1 = 0.05): 1.3401 ± 0.0007
refractive index ([1]; 303.15 K, w1 = 0.1): 1.3469 ± 0.0007
refractive index ([1]; 303.15 K, w1 = 0.15): 1.3542 ± 0.0007
refractive index ([1]; 303.15 K, w1 = 0.2): 1.361 ± 0.0007
refractive index ([1]; 303.15 K, w1 = 0.3): 1.3763 ± 0.0007
refractive index ([1]; 303.15 K, w1 = 0.4): 1.3932 ± 0.0007
refractive index ([1]; 303.15 K, w1 = 0.5): 1.41 ± 0.0007
refractive index ([1]; 308.15 K, w1 = 0.01): 1.3345 ± 0.0007
refractive index ([1]; 308.15 K, w1 = 0.05): 1.3395 ± 0.0007
refractive index ([1]; 308.15 K, w1 = 0.1): 1.3463 ± 0.0007
refractive index ([1]; 308.15 K, w1 = 0.15): 1.3535 ± 0.0007
refractive index ([1]; 308.15 K, w1 = 0.2): 1.3604 ± 0.0007
refractive index ([1]; 308.15 K, w1 = 0.3): 1.3757 ± 0.0007
refractive index ([1]; 308.15 K, w1 = 0.4): 1.3925 ± 0.0007
refractive index ([1]; 308.15 K, w1 = 0.5): 1.4098 ± 0.0007
refractive index ([1]; 313.15 K, w1 = 0.01): 1.3337 ± 0.0007
refractive index ([1]; 313.15 K, w1 = 0.05): 1.3388 ± 0.0007
refractive index ([1]; 313.15 K, w1 = 0.1): 1.3455 ± 0.0007
refractive index ([1]; 313.15 K, w1 = 0.15): 1.3527 ± 0.0007
refractive index ([1]; 313.15 K, w1 = 0.2): 1.3596 ± 0.0007
refractive index ([1]; 313.15 K, w1 = 0.3): 1.3747 ± 0.0007
refractive index ([1]; 313.15 K, w1 = 0.4): 1.3919 ± 0.0007
refractive index ([1]; 313.15 K, w1 = 0.5): 1.4086 ± 0.0007
refractive index ([1]; 318.15 K, w1 = 0.01): 1.3329 ± 0.0007
refractive index ([1]; 318.15 K, w1 = 0.05): 1.3379 ± 0.0007
refractive index ([1]; 318.15 K, w1 = 0.1): 1.3447 ± 0.0007
refractive index ([1]; 318.15 K, w1 = 0.15): 1.3519 ± 0.0007
refractive index ([1]; 318.15 K, w1 = 0.2): 1.3588 ± 0.0007
refractive index ([1]; 318.15 K, w1 = 0.3): 1.3739 ± 0.0007
refractive index ([1]; 318.15 K, w1 = 0.4): 1.3907 ± 0.0007
refractive index ([1]; 318.15 K, w1 = 0.5): 1.4073 ± 0.0007

O [water]
refractive index ([2]; 293.15 K): 1.3335 ± 0.0007
refractive index ([2]; 298.15 K): 1.333 ± 0.0007
refractive index ([2]; 303.15 K): 1.3323 ± 0.0007
refractive index ([2]; 308.15 K): 1.332 ± 0.0007
refractive index ([2]; 313.15 K): 1.3316 ± 0.0007
refractive index ([2]; 318.15 K): 1.3312 ± 0.0007

O [water] + [Cl-].[K+]
refractive index ([1]; 293.15 K, w2 = 0): 1.3335 ± 0.0007
refractive index ([1]; 298.15 K, w2 = 0): 1.333 ± 0.0007
refractive index ([1]; 303.15 K, w2 = 0): 1.3323 ± 0.0007
refractive index ([1]; 308.15 K, w2 = 0): 1.332 ± 0.0007
refractive index ([1]; 313.15 K, w2 = 0): 1.3316 ± 0.0007
refractive index ([1]; 318.15 K, w2 = 0): 1.3312 ± 0.0007

O [water] + [Ca+2].[Cl-].[Cl-]
refractive index ([1]; 293.15 K, w2 = 0): 1.3335 ± 0.0007
refractive index ([1]; 298.15 K, w2 = 0): 1.333 ± 0.0007
refractive index ([1]; 303.15 K, w2 = 0): 1.3323 ± 0.0007
refractive index ([1]; 308.15 K, w2 = 0): 1.332 ± 0.0007
refractive index ([1]; 313.15 K, w2 = 0): 1.3316 ± 0.0007
refractive index ([1]; 318.15 K, w2 = 0): 1.3312 ± 0.0007
